Measurements published in patent publication US20220162215A1, “COMPOSITIONS AND METHODS OF USING THE SAME FOR TREATMENT OF NEURODEGENERATIVE AND MITOCHONDRIAL DISEASE” (MITOKININ, INC., priority 2019, published 2022).
Converted amounts (≈) assume the structure as drawn. “Also recorded” adds a separate entry of the source. Where two headings read alike, the source gives them in different places.

Key:
Solubility in 1× PBS = type: physicochemical
pS129 α-synuclein = pS129 α-synuclein in human iPSC derived neurons; type: cell-based; details: FIG. 21
HeLa MKYP cells [1] = assay: Human mitophagy assay (HeLa MKYP, mtKeima FACS, FCCP/oligomycin); type: cell-based; details: for EC50: Homo sapiens, HeLa
Description: Briefly, HeLa MKYP cells were plated at 10,000 cells/well in 96 well plates along with compounds at various concentrations. Following 16 hrs of incubation, cells were treated with 1 uM FCCP/oligomycin for 6 hours, then analyzed via FACS for the presence of mitochondria in lysosomes (as determined by an emissions spectrum shift from the pH-sensitive mtKeima tag). Examples are shown in FIG. 1 through FIG. 13 below.

[2] = Tissue distribution, mouse; type: in vivo
Description: (§1) Referring to Tables 8A-C below, an in vivo summary of EP-0035985 IV at 1 mg/kg (8A), PO 10 mg/kg (8B), and a tissue distribution, mouse (8C) is shown below.

mitotoxicity = assay: Mitotox safety margin (therapeutic window); type: cell-based
PINK1 = target: T1, PINK1 (Homo sapiens, UniProt Q9BXM7); assay: Human Phospho-Ubiquitin (pS65) ub2 assay (western blot, in vitro PINK1 kinase assay); type: cell-based; details: in the presence of 0.5 μM FO; FIG. 14
T1 construct: for each cell type tested (HeLa-MKYP WT or PINK1^KO); endogenous in cells; host or cells: HeLa-MKYP (WT) / HeLa cells
Description: Briefly, HeLa MKYP cells were plated at 1,300,000 cells/plate in 10 cm plates in 10 mL of medium containing compound at various concentrations. Following 16 hrs of incubation, cells were treated with 0.5 uM FCCP/oligomycin for 2 hours, then harvested. Mitochondria were then isolated according to published protocols (Ordureau et al, 2014; https://doi.org/10.1016/j.molcel.2014.09.007). Equal amounts of samples were loaded on 26 well gradient gels, and a western blot analysis was performed using commercially available antibodies for various markers, including […].

HeLa MKYP cells [3] = assay: Toxicity / cell death measured by DAPI staining (take-up); type: cell-based
Description: H2O2 treatment was performed as a control for cell death as measured by DAPI staining.
Briefly, HeLa MKYP cells were plated at 10,000 cells/well in 96 well plates along with compounds at various concentrations. Following 16 hrs of incubation, cells were treated with 1 uM FCCP/oligomycin for 6 hours, then analyzed via FACS for the presence of mitochondria in lysosomes (as determined by an emissions spectrum shift from the pH-sensitive mtKeima tag).

[4] = test system: phospho-serine 129 synuclein (pS129); assay: Preformed α-syn amyloid fibril (PFF) primary neuron model; type: cell-based, mice
Description: Briefly, primary hippocampal neurons were derived and cultured following standard protocols. At DIV-7, the cultures were treated with PFFs. At DIV-10, the cultures began treatment with a Mitokinin compound or vehicle controls, such treatment continuing for the duration of the experiment. The cultures were fixed and stained for alpha synuclein, TUJ1, and MAP2 at DIV-14, and analysis performed by unbiased imaging on an ImageXpress Confocal microscope and quantified by Molecular Devices' MetaXpress software.

dOTC = assay: Ornithine carbamoyltransferase (dOTC) assay; type: cell-based
Description: The expression of a deletion mutant of dOTC yields Triton X-100 insoluble protein aggregates in the mitochondrial matrix. This misfolded protein expression is capable of recruiting PINK1/Parkin to mitochondria without depolarizing the inner mitochondrial membrane. Thus, without wishing to be bound by theory, it may represent a more physiological mechanism of PINK1 stabilization.
Here, HeLa cells stably expressing YFP parkin, containing doxycycline inducible expression of dOTC, were obtained. The cells were seeded at 20000 cells/well plus doxycycline (1 μg/mL) plus MTK on a 96-well plate. On Day 3, the cells were fixed and permeabilized and bound with OTC antibody. DAPI and cell mask were added. There was no wash off of dox. The results were imaged at 40×, non-confocal. 85-600 cells were analyzed per well. Each condition had 1-3 wells.

[5] = In vivo pharmacokinetic properties (Table 7)
[6] = In vivo summary, pharmacokinetics, mouse
Description: as §1

[7] = three days of treatment with DOX and 50 μM

T1 sequence (Q9BXM7 78-581): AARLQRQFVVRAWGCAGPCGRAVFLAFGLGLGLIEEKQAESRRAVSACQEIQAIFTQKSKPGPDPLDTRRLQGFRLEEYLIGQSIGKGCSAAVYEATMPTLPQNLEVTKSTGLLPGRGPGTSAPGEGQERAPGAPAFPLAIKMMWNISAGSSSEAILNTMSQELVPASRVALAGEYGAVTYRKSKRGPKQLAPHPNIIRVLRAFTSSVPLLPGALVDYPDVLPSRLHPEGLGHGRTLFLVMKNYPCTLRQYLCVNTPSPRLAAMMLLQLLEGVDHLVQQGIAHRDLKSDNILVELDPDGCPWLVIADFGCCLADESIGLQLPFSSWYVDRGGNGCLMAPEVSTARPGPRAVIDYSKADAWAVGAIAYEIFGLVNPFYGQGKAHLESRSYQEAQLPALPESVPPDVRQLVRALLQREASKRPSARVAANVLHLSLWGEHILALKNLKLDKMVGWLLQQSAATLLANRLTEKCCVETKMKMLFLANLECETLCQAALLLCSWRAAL

FC(F)(F)c1cc2c(NC3CCCc4ccccc43)ncnc2[nH]1 (centres unmarked) [Compound 15]
solubility (Solubility in 1× PBS): 1 µM (≈ 0.332 µg/mL)
pS129 α-synuclein (pS129 α-synuclein): significantly reduces pS129 α-synuclein
EC50 (HeLa MKYP cells [1]; Table 3 Supplement B, read-out: Mitophagy EC50 (HeLa mKeima assay)): 440 ± 120 nM
EC50 (HeLa MKYP cells [1]; Table 4, read-out: Potency (EC50 Max Mitophagy)): 440 ± 120 nM
mitophagy as measured by FACS mKeima (HeLa MKYP cells [1]; PINK1wt vs PINK1ko cell lines, FIG. 19): increases mitophagy as measured by FACS mKeima in PINK1^wt but not PINK1^ko cell lines
Potency at 1 μM F/O toxin* (HeLa MKYP cells [1]; Table 2, % activation of mitophagy at 1.6 μM treatment of the compound): 55.5%
concentration at 0.5 h ([2]; brain, dose 10 mg/kg, read-out: Brain 0.5 h): 526 ng/g
concentration at 1 h ([2]; brain, dose 10 mg/kg, read-out: Brain 1 h): 737 ng/g
concentration at 2 h ([2]; brain, dose 10 mg/kg, read-out: Brain 2 h): 435 ng/g
concentration at 0.5 h ([2]; brain, dose 50 mg/kg, read-out: Brain 0.5 h): 3340 ng/g
concentration at 1 h ([2]; brain, dose 50 mg/kg, read-out: Brain 1 h): 6370 ng/g
concentration at 2 h ([2]; brain, dose 50 mg/kg, read-out: Brain 2 h): 3980 ng/g
concentration at 0.5 h ([2]; kidney, dose 10 mg/kg, read-out: Kidney 0.5): 1050 ng/g
concentration at 1 h ([2]; kidney, dose 10 mg/kg, read-out: Kidney 1): 1290 ng/g
concentration at 2 h ([2]; kidney, dose 10 mg/kg, read-out: Kidney 2): 893 ng/g
concentration at 0.5 h ([2]; kidney, dose 50 mg/kg, read-out: Kidney 0.5): 6430 ng/g
concentration at 1 h ([2]; kidney, dose 50 mg/kg, read-out: Kidney 1): 11500 ng/g
concentration at 2 h ([2]; kidney, dose 50 mg/kg, read-out: Kidney 2): 7480 ng/g
concentration at 0.5 h ([2]; plasma, dose 10 mg/kg, read-out: Plasma 0.5 h): 372 ng/g
concentration at 1 h ([2]; plasma, dose 10 mg/kg, read-out: Plasma 1 h): 276 ng/g
concentration at 2 h ([2]; plasma, dose 10 mg/kg, read-out: Plasma 2 h): 146 ng/g
concentration at 0.5 h ([2]; plasma, dose 50 mg/kg, read-out: Plasma 0.5 h): 1900 ng/g
concentration at 1 h ([2]; plasma, dose 50 mg/kg, read-out: Plasma 1 h): 2080 ng/g
concentration at 2 h ([2]; plasma, dose 50 mg/kg, read-out: Plasma 2 h): 1420 ng/g
Mitotox safety margin (Therapeutic window) (mitotoxicity; class of the Ratio): ++++ (ratio 30<)
Ratio** (mitotoxicity; highest concentration with no observable mitotoxicity (μM) divided by the EC50 (μM) of the compound): 40.02
pS65 Ub signal (PINK1): increases the pS65 Ub signal
Toxicity (% positive for DAPI takeup @ 50 μM) (HeLa MKYP cells [3]; Table 2): 2.1%
Max cell death at 25 uM compound, 1 uM FO (HeLa MKYP cells [3]; Table 3 Supplement B, 25 uM compound, 1 uM FO): 10.7%
Cell death at 25 μM (no FO) (HeLa MKYP cells [3]; Table 3 Supplement B, 25 μM, no FO): 2.59%
Toxicity (% positive for DAPI takeup @ 50 μM) (HeLa MKYP cells [3]; Table 4): 2.4%
EC50 ([4]; FIG. 22A, 22B, read-out: EC50 of decrease of pS129 synuclein increase driven by PFF addition): 981 nM
pS129 synuclein in PINK1ko cell lines ([4]; PINK1ko, FIG. 22C): does not decrease pS129 synuclein in PINK1^ko cell lines
dOTC proteins / delta OTC aggregates (dOTC; induced by doxycycline, FIG. 16, FIG. 20, listed as EP-0035985): able to reduce the accumulated dOTC proteins; also recorded: reduces delta OTC aggregates from mitochondria
OTC signal (dOTC; [7]): very effective at reducing OTC signal
cell counts (dOTC; [7]): cell counts were lower
AUC (obs) ([5]; IV (1 mg/kg)): 1.4 µM·h
Cmax ([5]; IV (1 mg/kg)): 1450 nM
Cmax ([5]; PO (10 mg/kg)): 1080 nM
F % ([5]; PO (10 mg/kg)): 17.4%
AUC (obs) ([5]; PO (50 mg/kg)): 27.4 µM·h
Cmax ([5]; PO (50 mg/kg)): 9800 nM
F % ([5]; PO (50 mg/kg)): 37.9%
T1/2 ([5]; PO (50 mg/kg)): 3.9 h
bioavailability ([5]; in vivo dosing, FIG. 23 and Table 7): good bioavailability
AUC(0-inf) ([5]; mouse, in vivo, IV (1 mg/kg)): 1.5 µM·h
half-life ([5]; mouse, in vivo, IV (1 mg/kg)): 1.4 h
AUC ([5]; mouse, in vivo, PO (10 mg/kg)): 2.4 µM·h
AUC(0-inf) ([5]; mouse, in vivo, PO (10 mg/kg)): 2.6 µM·h
half-life ([5]; mouse, in vivo, PO (10 mg/kg)): 2 h
AUC(0-inf) ([5]; mouse, in vivo, PO (50 mg/kg)): 35.5 µM·h
AUCExtr ([6]; IV at 1 mg/kg, Table 8A): 1.1%
AUClast ([6]; IV at 1 mg/kg, Table 8A): 481.3 ng·h/mL
C0 ([6]; IV at 1 mg/kg, Table 8A): 1569.0 ng/mL
CL ([6]; IV at 1 mg/kg, Table 8A): 34.3 mL/min/kg
MRTlnf ([6]; IV at 1 mg/kg, Table 8A): 0.7 h
T1/2 ([6]; IV at 1 mg/kg, Table 8A): 1.4 h
Vss ([6]; IV at 1 mg/kg, Table 8A): 1.5 L/kg
Vz ([6]; IV at 1 mg/kg, Table 8A): 4.0 L/kg
AUClast ([6]; PO 10 mg/kg, Table 8B): 357.3 ng·h/mL
AUClnf ([6]; PO 10 mg/kg, Table 8B): 803.3 ng·h/mL
MRTlnf ([6]; PO 10 mg/kg, Table 8B): 17.4 h
Vss ([6]; PO 10 mg/kg, Table 8B): 2.5 L/kg
AUC ([6]; in vivo, IV at 1 mg/kg, Table 8A): 487 ng·h/mL
C0 ([6]; in vivo, PO 10 mg/kg, Table 8B, read-out: C0): 0.5 ng/mL
